Data taken from paper PMC10666275 (ACS Omega, 2023).
Values after ≈ are worked out from the molar mass of the structure shown. “Also recorded” adds a separate entry of the source.

Key:
MRSA [1] = assay: Agar diffusion method, inhibition zones, MRSA; format: cell-based, methicillin-resistant Staphylococcus aureus; conditions: Staphylococcus aureus, 24 h, read-out: IZ (inhibition zone)
P. aeruginosa [2] = assay: Agar diffusion method, inhibition zones, P. aeruginosa; format: cell-based, Pseudomonas aeruginosa; conditions: 24 h; for zone of inhibition at 10000 µg/mL: Pseudomonas aeruginosa, read-out: IZ (inhibition zone); for IZ (inhibition zone): P. aeruginosa, agar well diffusion, 100 μL of 10 mg/mL in DMSO, 37 °C
[3] = target: T1, dihydrofolate reductase (DHFR) enzyme (Homo sapiens, UniProt P00374); assay: In vitro DHFR inhibition assay; format: biochemical
T1 sequence (P00374 1-187): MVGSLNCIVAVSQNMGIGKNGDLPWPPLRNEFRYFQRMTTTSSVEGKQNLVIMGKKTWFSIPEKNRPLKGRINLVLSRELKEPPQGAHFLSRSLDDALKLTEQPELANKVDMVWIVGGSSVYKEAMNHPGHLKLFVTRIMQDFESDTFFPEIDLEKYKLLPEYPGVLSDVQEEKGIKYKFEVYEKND

P. aeruginosa [4] = assay: Resazurin-based 96-well plate microdilution MIC, P. aeruginosa; format: cell-based; conditions: Pseudomonas aeruginosa, 24 h
MRSA [5] = assay: Resazurin-based 96-well plate microdilution MIC, MRSA; format: cell-based, methicillin-resistant Staphylococcus aureus; conditions: Staphylococcus aureus, 24 h
MRSA-induced keratitis = MRSA-induced keratitis in rats; format: in vivo, rat (Sprague–Dawley)

SMILES	zone of inhibition at 10000 µg/mL (MRSA [1]) [mm]	zone of inhibition at 10000 µg/mL (P. aeruginosa [2]) [mm]	IC50 [3] [µM]	MIC (P. aeruginosa [4]) [µM]	MIC (MRSA [5]) [µM]	area % of corneal opacity (infection intensity) (MRSA-induced keratitis; 5c dispersion, versus MRSA group)	inflammation score (MRSA-induced keratitis; H&E cornea, score 0-4, versus MRSA group)	corneal inflammation, histological evaluation (H&E) (MRSA-induced keratitis; MRSA/5c dispersion group compared to MRSA group)	IZ (inhibition zone) (P. aeruginosa [2])
COc1cc(C(=O)/C=C\c2cn(-c3ccccc3)nc2-c2ccccc2)cc(OC)c1OC [compound 4, (Z)-3-(1,3-Diphenyl-1H-pyrazol-4-yl)-1-(3,4,5-trimethoxyphenyl)prop-2-en-1-one]	17	15	5 ± 0.23	–	–	–	–	–	–
COc1cc(-c2cc(-c3cn(-c4ccccc4)nc3-c3ccccc3)[nH]c(=O)n2)cc(OC)c1OC [compound 5a, 6-(1,3-Diphenyl-1H-pyrazol-4-yl)-4-(3,4,5-trimethoxyphenyl)pyrimidine-2(1H)-one]	25	22	4.2 ± 0.2	8320 (≈ 4000 µg/mL)	2080 (≈ 1000 µg/mL)	–	–	–	–
COc1cc(-c2cc(-c3cn(-c4ccccc4)nc3-c3ccccc3)[nH]c(=S)n2)cc(OC)c1OC [compound 5b, 6-(1,3-Diphenyl-1H-pyrazol-4-yl)-4-(3,4,5-trimethoxyphenyl)pyrimidine-2(1H)-thione]	23	20	4.1 ± 0.19	4030 (≈ 2000 µg/mL)	1010 (≈ 500 µg/mL)	–	–	–	–
COc1cc(-c2cc(-c3cn(-c4ccccc4)nc3-c3ccccc3)[nH]c(=N)n2)cc(OC)c1OC [compound 5c, 6-(1,3-Diphenyl-1H-pyrazol-4-yl)-4-(3,4,5-trimethoxyphenyl)pyrimidine-2(1H)-imine]	28	24	4 ± 0.18	2080 (≈ 1000 µg/mL)	521 (≈ 250 µg/mL)	significantly (P < 0.0001) reduced infection in rats; also recorded: significant reduction in the area % of corneal opacity	significant decrease in inflammation score	mild to moderate inflammatory cell infiltration	–
COc1cc(C2=NNC(c3cn(-c4ccccc4)nc3-c3ccccc3)C2)cc(OC)c1OC (stereo not drawn) [compound 6a, 1′,3′-Diphenyl-5-(3,4,5-trimethoxyphenyl)-3,4-dihydro-1′H,2H-3,4′-bipyrazole]	15	6	5.56 ± 0.27	–	–	–	–	–	–
COc1cc(C2=NN(c3ccccc3)C(c3cn(-c4ccccc4)nc3-c3ccccc3)C2)cc(OC)c1OC (stereo not drawn) [compound 6b, 1′,2,3′-Triphenyl-5-(3,4,5-trimethoxyphenyl)-3,4-dihydro-1′H,2H-3,4′-bipyrazole]	6	0	6.45 ± 0.31	–	–	–	–	–	no detectable activity
COc1cc(C2=NN(C(C)=O)C(c3cn(-c4ccccc4)nc3-c3ccccc3)C2)cc(OC)c1OC (stereo not drawn) [compound 7, 1-(1′,3′-Diphenyl-5-(3,4,5-trimethoxyphenyl)-3,4-dihydro-1′H,2H-[3,4′-bipyrazol]-2-yl)ethan-1-one]	11	0	6.7 ± 0.31	–	–	–	–	–	no detectable activity
C[C@H]1COc2c(N3CCN(C)CC3)c(F)cc3c(=O)c(C(=O)O)cn1c23 [levofloxacin, reference compound]	31	27	–	1380 (≈ 500 µg/mL)	346 (≈ 125 µg/mL)	–	–	–	–
